For assay [1], the system named is Rabbit Intermittent Claudication Model (injured limb of the high cholesterol chow-loaded rabbit). In words: Rabbit intermittent claudication model: recovery time of tissue oxygen saturation after exercise (near infrared spectrophotometer). The class given is in vivo, male New Zealand White Rabbits. The settings on record: for Recovery Time of Tissue Oxygen Saturation: 3 days after operation, injured limb, high cholesterol chow-loaded rabbit; for Effect on the recovery time of the tissue oxygen saturation (in words): vs control, drug of the invention 3 mg/kg, pentoxifylline 300 mg/kg, cilostazol 100 mg/kg, sarpogrelate hydrochloride 300 mg/kg. The source says:
To male New Zealand White Rabbits, there was given 1% cholesterol-containing RC4 (available from ORIENTAL KOBO Co., Ltd.) chow over 4 weeks (100 g/day/animal) to obtain a high cholesterol-loaded group (8 animals), while normal RC4 (available from ORIENTAL KOBO Co., Ltd.) chow was given to a group of such animals (normal feed-loaded group: 6 animals). The groins of these animals belonging to these two groups were incised in their supine position, under the anesthesia with ketamine and xylazine, followed by exposing the right femoral artery and then repeating, three times, the balloon injury treatment, which comprises the steps of inserting a Fogarty's balloon catheter in a length of 7 cm into the artery, expanding the balloon catheter to a diameter of 5 mm within the right iliac artery and then pulling out the catheter while the balloon catheter was still in the expanded state and finally ligating the right femoral artery. After 3 days from the operation, the both gluteal regions and the posterior of the lower limbs were dissected in the supine position of the animal under the anesthesia with ketamine and xylazine. The probe of a near infrared spectrophotometer was directly fitted to the interior of the both side gastrocnemius muscles, followed by application of electrical stimulation at 1 Hz to the sciatic nerves on both sides for 2 minutes as exercise loads.
After the application of exercise, these animals were kept quiet rest, followed by monitoring the process in which the degree of tissue oxygen saturation reduced during exercise was recovered, using an multi-wavelength-type near infrared spectrophotometer to thus obtain the time required for the recovery of the degree of tissue oxygen saturation in the both limbs. As such multi-wavelength-type near infrared spectrophotometer, there was used MCPD-2000 available from OTSUKA ELECTRONICS Co., Ltd., which had been improved in such a manner that the device could almost simultaneously detect the tissue oxygen saturation for the both side gastrocnemius muscles. In this respect, the distance between the light guide and detector of near infrared light rays was set at a level of 5 mm. A ½ recovered tissue oxygen saturation (½ StO2), which was an intermediate value of the tissue oxygen saturation observed after the application of the exercise (the minimum tissue oxygen saturation after exercise) and the tissue oxygen saturation observed after the recovery of exercise (the maximum tissue oxygen saturation after exercise) and then the recovery time was defined to be the time required for arriving at the level of ½ StO2 after the end of exercise-application.
To male New Zealand White Rabbits, there was given 1% cholesterol-containing RC4 (available from ORIENTAL KOBO Co., Ltd.) chow over 4 weeks (100 g/day/animal), followed by dividing these animals into two groups in such a manner that the total cholesterol levels in the plasma were identical to one another and then subjecting these two groups to treatments identical to those used in the foregoing model.
To these animals, there was orally administered, once a day, 1-formyl-N-(2-(4-(5H-dibenzo [a, d] cyclohepten-5-ylidene)-1-piperidinyl)) ethyl isonipecotic acid amide represented by the formula (2) after dissolving it in water in an amount of 3 mg/kg over the term extending from the day following the operation to the day on which the near infrared spectrophotometric measurement was initiated. On the other hand, distilled water was orally administered to the control group once a day. After 3 days from the operation, the recovery time of the tissue oxygen saturation after exercise was determined using a near infrared spectrophotometer.
The same procedures used in Example 1 were repeated except for using 300 mg/kg of pentoxifylline in place of the compound represented by the formula (2) to thus carry out the determination. […]

Assay [2] has as its system Rat Intermittent Claudication Model. In words: Rat intermittent claudication model (lauric acid injection): maximum running/walking time on treadmill. The format is in vivo, male SD rats. The settings on record: for Maximum Walking Time, recovery rate relative to day 1 (defined to be 100), After 1 day: after 1 day from lauric acid injection (baseline = 100); for Maximum Walking Time, recovery rate relative to day 1 (defined to be 100), After 1 day / Maximum Walking Time, recovery rate relative to day 1 (= 100), After 3 days / Maximum Walking Time, recovery rate relative to day 1 (= 100), After 7 days / Maximum Walking Time, recovery rate relative to day 1 (= 100), After 14 days / Maximum Walking Time, recovery rate relative to day 1 (= 100), After 21 days: formula (2) hydrochloride 3 mg/kg/day, pentoxifylline 60 mg/kg/day, oral; for Maximum Walking Time, recovery rate relative to day 1 (= 100), After 3 days: after 3 days from lauric acid injection, control 132; for Maximum Walking Time, recovery rate relative to day 1 (= 100), After 7 days: after 7 days from lauric acid injection, control 177; for Maximum Walking Time, recovery rate relative to day 1 (= 100), After 14 days: after 14 days from lauric acid injection, control 198; for Maximum Walking Time, recovery rate relative to day 1 (= 100), After 21 days: after 21 days from lauric acid injection, control 215. How it is done: (§1) Using an improved model of Corcico et al. (Corcico N. Cardiovasc. Drugs Ther., 1993, 7:241-251), male SD rats were made run on a rat treadmill (available from NATSUME SEISAKUSHO) at a speed of 10 m/min, followed by stepwise raising the running speed by 5 m/min every 3 minutes to thus determine the time (the maximum running time) required till the rats could not run any more and to thus evaluate the running ability of each animal. On the following day, these rats were anesthetized with pentobarbital and then 3.5 mg/ml of sodium laurate solution (available from SIGMA Company; dissolved in a 0.5% glucose aqueous solution) was injected into the right and left femoral arteries at a dose of 100 μl/leg to thus induce artificial intermittent claudication in the animals.
After 1, 3, 7, 14 and 21 days from the injection of the sodium laurate solution, the maximum running time was determined according to the method described above.
(§2) The same procedures used in Reference Example 2 were repeated using male SD rats (15 animals) to thus establish a rat intermittent claudication model. On the day following the lauric acid-injection, each animal was inspected for the maximum running time and these animals were divided into three groups so that the running abilities of these groups were almost identical to one another. To the first group (drug-administered group), there was orally administered, once a day, 3 mg/kg of hydrochloride of the compound represented by the formula (2) dissolved in distilled water over the term extending from the day following the lauric acid injection to 21st day, while 60 mg/kg of pentoxifylline (available from SIGMA Company) dissolved in distilled water was orally administered to the second group once a day as a comparative example. To the third group (control group), there was orally administered distilled water once a day. After 3, 7, 14 and 21 days from the lauric acid-injection, the maximum running time of each animal was determined to thus evaluate the recovery rate relative to the maximum walking time observed after the day following the lauric acid-injection (this was defined to be 100). In addition, the presence of any lesion on the limbs was simultaneously confirmed. The presence of any lesion on the lower limb was rated according to the following 6 evaluation criteria: 0: normal and all of the 5 toes could widely be opened; 1: limbs could look upward, but the toes could not be opened; 2: the limbs looked downward; 3: not less than 3 claws were necrosed; 4: not less than 3 toes were necrosed; and 5: not less than 3 toes were left out.

Assay [3] shares this test system. In words: Rat intermittent claudication model (lauric acid injection): score for lower limb lesion. The class given is in vivo, male SD rats. The settings on record: for Score for Lower Limb Lesion, After 1 day / Score for Lower Limb Lesion, After 3 days / Score for Lower Limb Lesion, After 7 days / Score for Lower Limb Lesion, After 14 days / Score for Lower Limb Lesion, After 21 days: score 0-5, formula (2) hydrochloride 3 mg/kg/day, pentoxifylline 60 mg/kg/day, oral; for Score for Lower Limb Lesion, After 1 day: after 1 day from lauric acid injection (baseline), control 4.0; for Score for Lower Limb Lesion, After 3 days / Score for Lower Limb Lesion, After 7 days / Score for Lower Limb Lesion, After 14 days: control 3.8; for Score for Lower Limb Lesion, After 21 days: control 3.4. How it is done:
as §1, §2

Structures can show the parent of a compound that is named as a salt.

For the compound `O=CN1CCC(C(=O)NCCN2CCC(=C3c4ccccc4C=Cc4ccccc43)CC2)CC1` [Compound of Formula (2), 1-formyl-N-(2-(4-(5H-dibenzo[a,d]cyclohepten-5-ylidene)-1-piperidinyl))-ethyl-isonipecotic acid amide], the “Recovery Time of Tissue Oxygen Saturation” value in assay [1] (3 mg/kg orally once a day, control 3.8 ± 0.46) was found to be 2.0 ± 0.40 min. For the same compound, in assay [2], the “Maximum Walking Time, recovery rate relative to day 1 (defined to be 100), After 1 day” value is 100; the “Maximum Walking Time, recovery rate relative to day 1 (= 100), After 3 days” value was determined as 189; the “Maximum Walking Time, recovery rate relative to day 1 (= 100), After 7 days” value worked out at 256; the “Maximum Walking Time, recovery rate relative to day 1 (= 100), After 14 days” value is 252. Besides, the “Maximum Walking Time, recovery rate relative to day 1 (= 100), After 21 days” value in assay [2] came out at 317. Besides, in assay [3], the “Score for Lower Limb Lesion, After 1 day” value is reported as 4.0; the “Score for Lower Limb Lesion, After 3 days” value stood at 3.2; the “Score for Lower Limb Lesion, After 7 days” value came out at 2.2; the “Score for Lower Limb Lesion, After 14 days” value came to 1.7. In addition, in assay [3], the “Score for Lower Limb Lesion, After 21 days” value was found to be 1.5.

For the compound `CC(=O)CCCCn1c(=O)c2c(ncn2C)n(C)c1=O` [Pentoxifylline, pentoxifylline], the “Recovery Time of Tissue Oxygen Saturation” value in assay [1] (300 mg/kg orally once a day, control 3.8 ± 1.28) was 7.1 ± 1.65 min. Besides, the “Effect on the recovery time of the tissue oxygen saturation (in words)” value (from here on “Effect on the recovery time”) in assay [1] is reported as “did not show any reduction in the recovery time”. Further, in assay [2], the “Maximum Walking Time, recovery rate relative to day 1 (defined to be 100), After 1 day” value is recorded as 100; the “Maximum Walking Time, recovery rate relative to day 1 (= 100), After 3 days” value is 178; the “Maximum Walking Time, recovery rate relative to day 1 (= 100), After 7 days” value came out at 189; the “Maximum Walking Time, recovery rate relative to day 1 (= 100), After 14 days” value was 211. Moreover, the “Maximum Walking Time, recovery rate relative to day 1 (= 100), After 21 days” value in assay [2] is 249. In addition, the “Effect on the maximum walking time (in words)” value in assay [2] (vs control group, formula (2) hydrochloride 3 mg/kg (after 7 days), pentoxifylline 60 mg/kg) is listed as “had a tendency of increasing the maximum walking time”. Also, in assay [3], the “Score for Lower Limb Lesion, After 1 day” value came to 4.0; the “Score for Lower Limb Lesion, After 3 days” value is recorded as 3.7; the “Score for Lower Limb Lesion, After 7 days” value was 3.7; the “Score for Lower Limb Lesion, After 14 days” value stood at 3.3. Also, the “Score for Lower Limb Lesion, After 21 days” value in assay [3] is reported as 2.5. For the same compound, the “Effect on the development of lesions of the lower limbs (in words)” value in assay [3] (vs control group, formula (2) hydrochloride 3 mg/kg, pentoxifylline 60 mg/kg) was “the effect was still insufficient”.

Take `O=C1CCc2cc(OCCCCc3nnnn3C3CCCCC3)ccc2N1` [Cilostazol, cilostazol]: the “Recovery Time of Tissue Oxygen Saturation” value in assay [1] (100 mg/kg orally once a day, control 2.8 ± 0.97) is given as 3.5 ± 0.52 min. Besides, in assay [1], the “Effect on the recovery time” value is reported as “does not show any substantial reduction of the recovery time”.

Consider `COc1cccc(CCc2ccccc2OCC(CN(C)C)OC(=O)CCC(=O)O)c1` (centres unmarked) [Sarpogrelate · HCl, sarpogrelate hydrochloride], for which the “Recovery Time of Tissue Oxygen Saturation” value in assay [1] (300 mg/kg (table) orally once a day, control 3.9 ± 1.08) was determined as 3.4 ± 1.33 min. Also, the “Effect on the recovery time” value in assay [1] is “did not show any reduction of the recovery time”.

Source of the values: patent publication US6476049B2, “Therapeutic agent for intermittent claudication” (Ajinomoto Co., Inc., priority 1999, dated 2002).
